According to US8721963B2, “Cold sterilization of tissue engineering scaffolds with compressed carbon dioxide” (University of South Carolina, priority 2010, dated 2014):

Key:
B. pumilus spores = conditions: 40° C., 27.58 MPa, 4 hours; cited from earlier work
[1] = tested on: Escherichia coli (E. coli) (ATCC 15597); test: Inactivation of E. coli embedded in model hydrogel by SC-CO2 treatment (plate counting); format: cell-based; conditions: 27.6 MPa, 40° C., 4 hours
Description: Staphylococcus aureus (S. aureus) (ATCC 25923) and Escherichia coli (E. coli) (ATCC 15597) were used as test microorganisms embedded in the hydrogel to investigate the bacteriocidal activity of pure SC-CO2 or SC-CO2+H2O2. Suspensions of S. aureus and E. coli were prepared for inoculation of the hydrogel. Cultures of these bacteria were preserved on DifcoTM […] soy agar and stored in Petri dishes inside of a refrigerator at 4° C. A fresh colony was transferred aseptically from the agar culture plate into a culture tube containing 30 g/L of sterile tryptone soy broth (TSB). The bacteria were grown to a logarithmic phase in the TSB at 35° C. for 24 hours (Cappuccino and Sherman 2001). A fresh bacterial culture was prepared before every experiment to ensure cell viability. […] A Petroff Hausser counting chamber was used to quantify the cfu count in the diluted samples. […] A pulverization procedure was followed to quantify the amount of bacteria in the inoculated hydrogel. […] The degree of killing was quantified with a standard plate counting technique. The log reduction of bacteria (S. aureus or E. coli) was calculated with equation (1), [formula] For use as negative controls, a quantified amount of inoculated hydrogel (with either S. aureus or E. coli) in a polyallomer centrifuge tube was immersed in a PolyScience laboratory temperature bath (model 9105) at 40° C. for 4 hours. […]

[2] = tested on: Staphylococcus aureus (S. aureus) (ATCC 25923); test: Inactivation of S. aureus embedded in model hydrogel by SC-CO2 treatment (plate counting); format: cell-based; conditions: 27.6 MPa, 40° C.
Description: Staphylococcus aureus (S. aureus) (ATCC 25923) and Escherichia coli (E. coli) (ATCC 15597) were used as test microorganisms embedded in the hydrogel to investigate the bacteriocidal activity of pure SC-CO2 or SC-CO2+H2O2. Suspensions of S. aureus and E. coli were prepared for inoculation of the hydrogel. Cultures of these bacteria were preserved on DifcoTM […] soy agar and stored in Petri dishes inside of a refrigerator at 4° C. A fresh colony was transferred aseptically from the agar culture plate into a culture tube containing 30 g/L of sterile tryptone soy broth (TSB). The bacteria were grown to a logarithmic phase in the TSB at 35° C. for 24 hours (Cappuccino and Sherman 2001). A fresh bacterial culture was prepared before every experiment to ensure cell viability. Both S. aureus and E. coli bacteria suspensions were diluted after incubation to a concentration of approximately 107 colony forming units per milliliter (cfu/mL). A Petroff Hausser counting chamber was used to quantify the cfu count in the diluted samples. Also, a standard plate counting technique was followed to verify the original number of cfu. The final number of S. aureus or E. coli generally ranged from 7.6×106 to 2.3×10^8 cfu/mL. The hydrogel was hydrated with the diluted bacteria suspension of either S. aureus or E. coli. For CO2 sterilization experiments, the model gel was hydrated with the diluted bacteria suspension. Typically, 0.1 g of dry powder (absorption capacity of 200 mL H2O/g) was hydrated with steam autoclaved DI water. The hydrated powder was left overnight inside of a refrigerator at 4° C. About 3 g of the completely incorporated hydrated gel were then transferred into a polyallomer centrifuge tube for the CO2 treatment, to be described subsequently. […] A pulverization procedure was followed to quantify the amount of bacteria in the inoculated hydrogel. Bacteria were dislodged from the gel by pulverizing in a Stomacher 400 Circulator (Seward Ltd., United Kingdom) for 10 minutes at 230 revolutions per minute (rpm). The degree of killing was quantified with a standard plate counting technique. The log reduction of bacteria (S. aureus or E. coli) was calculated with equation (1), [formula] For use as negative controls, a quantified amount of inoculated hydrogel (with either S. aureus or E. coli) in a polyallomer centrifuge tube was immersed in a PolyScience laboratory temperature bath (model 9105) at 40° C. for 4 hours. The inoculated hydrogel was removed from the bath, pulverized in the Stomacher 400, and the degree of killing was quantified using the standard plate counting technique.

[3] = tested on: G. stearothermophilus spores; conditions: 40° C., 27.58 MPa, 4 hours; cited from earlier work
B. atrophaeus spores = conditions: 40° C., 27.58 MPa, 4 hours; cited from earlier work

O=C=O [pure SC-CO2, carbon dioxide]
log reduction of B. pumilus spores (B. pumilus spores): 6 log
killing of E. coli ([1]; in hydrogel): Complete killing
average log-reduction of E. coli ([1]; in poly(acrylic acid-co-acrylamide) hydrogel): 7.93 log
killing of S. aureus ([2]; in hydrogel, 4 hours): Complete killing
D-value (D40) of S. aureus ([2]; in hydrogel): 4.6 min
time required to obtain 6-log reduction of S. aureus ([2]; in hydrogel): about 27.4 minutes
log-reduction of S. aureus ([2]; in hydrogel, 10 minutes): 1.94 log
log-reduction of S. aureus ([2]; in hydrogel, 15 minutes): 3.42 log
log-reduction of S. aureus ([2]; in hydrogel, 20 minutes): 4.13 log
killing of S. aureus ([2]; in hydrogel, 30 minutes): complete kill
killing of S. aureus ([2]; in hydrogel, 60 minutes): complete kill
average log-reduction of S. aureus ([2]; in poly(acrylic acid-co-acrylamide) hydrogel, 4 hours): 7.72 log
log reduction of G. stearothermophilus spores [3]: 6 log
log reduction of B. atrophaeus spores (B. atrophaeus spores): 6 log
